Test results: US20260294922A1, “Inhibitors of JUN N-Terminal Kinases (JNK1, JNK2, and/or JNK3) and Mitogen-Activated Protein Kinases (MAPK8, MAPK9, and/or MAPK10) and Methods of Using Same” (Baylor College of Medicine, priority 2023, published 2026)
Values after ≈ are worked out from the molar mass of the structure shown. Where two headings read alike, the source gives them in different places.

Legend:
JNK1 [1] = molecular target: T1, JNK1 (Homo sapiens, UniProt P45983); assay: JNK1 kinase (intrinsic ATPase, Kinase-Glo) assay; type: biochemical
Experimental: JNK1, JNK2, and JNK3 hydrolyze ATP to ADP without any peptide substrates. This allows a very robust and fast endpoint assay where the remaining concentration of ATP is measured (BMG ClarioStar Plus plate reader) using the Kinase-Glo Assay kit from Promega (V6711). A luminescence signal is measured, which is produced by the catalytic conversion of beetle luciferin to oxyluciferin by luciferase. Potential inhibition of luciferase (i.e., false negatives) is easily detected, because assays without kinase are always included, and less ATP than is present in this control reaction could also indicate an inhibition of luciferase, which can be excluded by a counter screen with only luciferase.
To mitigate violation of the linear initial velocity principle, which is a problem in end-point assays when doing dose-responses, the enzyme concentration was carefully optimized, in a total assay volume of 25 μL. […] The kinase reaction was done for 30 or 60 min at 30° C., and detection of leftover ATP was measured according to Promega's protocol. […] Fractional activities were obtained from normalized data. Non-linear regression (GraphPad Prism7) and a modified Morrison equation for tight binding was used to determine apparent Ki values for inhibitors, assuming no particular mode of inhibition. An orthogonal binding assay (LanthaScreen) was outsourced to ThermoFisher Scientific's SelectScreen Services to determine IC50 values.

JNK2 [2] = molecular target: T2, JNK2 (Homo sapiens, UniProt P45984); assay: JNK2 kinase (intrinsic ATPase, Kinase-Glo) assay; type: biochemical
JNK3 [3] = molecular target: T3, JNK3 (Homo sapiens, UniProt P53779); assay: JNK3 kinase (intrinsic ATPase, Kinase-Glo) assay; type: biochemical
JNK1 [4] = molecular target: T1, JNK1; assay: Promega NanoBRET intracellular target engagement (tracer K10 displacement), JNK1; type: cell-based
JNK2 [5] = molecular target: T2, JNK2; assay: Promega NanoBRET intracellular target engagement (tracer K10 displacement), JNK2; type: cell-based
JNK3 [6] = molecular target: T3, JNK3; assay: Promega NanoBRET intracellular target engagement (tracer K10 displacement), JNK3; type: cell-based
[7] = In vitro metabolism in mouse liver microsomes; conditions: for half-life: mouse, microsomes
Experimental: (§1) The target product profile seeks to deliver JNK inhibitor as a once daily oral administration. To prioritize compounds for further development, in vitro metabolism of several CDD JNK inhibitors were determined to approximate the plasma half-life and the rate of metabolism of the compounds in vivo.

[8] = In vitro metabolism in human liver microsomes; conditions: human, microsomes
Experimental: as §1

T2 sequence (P45984 whole entry): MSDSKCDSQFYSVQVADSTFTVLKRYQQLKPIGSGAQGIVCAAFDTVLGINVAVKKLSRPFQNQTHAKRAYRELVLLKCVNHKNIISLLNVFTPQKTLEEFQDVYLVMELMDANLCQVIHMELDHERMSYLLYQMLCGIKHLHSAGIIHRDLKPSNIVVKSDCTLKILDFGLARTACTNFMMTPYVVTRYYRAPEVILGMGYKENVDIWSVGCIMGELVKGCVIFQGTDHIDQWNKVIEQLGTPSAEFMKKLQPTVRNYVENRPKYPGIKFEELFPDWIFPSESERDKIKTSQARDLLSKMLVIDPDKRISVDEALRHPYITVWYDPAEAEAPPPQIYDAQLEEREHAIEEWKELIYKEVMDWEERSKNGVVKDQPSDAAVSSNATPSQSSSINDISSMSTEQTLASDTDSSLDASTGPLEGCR
T3 sequence (P53779 whole entry): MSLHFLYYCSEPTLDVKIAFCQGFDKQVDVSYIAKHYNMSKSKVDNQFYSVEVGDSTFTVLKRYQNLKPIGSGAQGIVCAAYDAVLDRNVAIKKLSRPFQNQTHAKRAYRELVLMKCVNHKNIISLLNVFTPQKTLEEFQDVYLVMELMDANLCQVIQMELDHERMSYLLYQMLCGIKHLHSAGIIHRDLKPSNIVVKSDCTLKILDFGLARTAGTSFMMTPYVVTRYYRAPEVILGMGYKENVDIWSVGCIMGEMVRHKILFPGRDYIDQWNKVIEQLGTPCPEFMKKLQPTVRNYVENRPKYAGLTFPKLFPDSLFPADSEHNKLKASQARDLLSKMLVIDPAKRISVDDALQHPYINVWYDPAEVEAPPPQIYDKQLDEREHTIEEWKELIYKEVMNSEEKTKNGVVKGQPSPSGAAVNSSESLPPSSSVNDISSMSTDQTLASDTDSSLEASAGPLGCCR
T1 sequence (P45983 whole entry): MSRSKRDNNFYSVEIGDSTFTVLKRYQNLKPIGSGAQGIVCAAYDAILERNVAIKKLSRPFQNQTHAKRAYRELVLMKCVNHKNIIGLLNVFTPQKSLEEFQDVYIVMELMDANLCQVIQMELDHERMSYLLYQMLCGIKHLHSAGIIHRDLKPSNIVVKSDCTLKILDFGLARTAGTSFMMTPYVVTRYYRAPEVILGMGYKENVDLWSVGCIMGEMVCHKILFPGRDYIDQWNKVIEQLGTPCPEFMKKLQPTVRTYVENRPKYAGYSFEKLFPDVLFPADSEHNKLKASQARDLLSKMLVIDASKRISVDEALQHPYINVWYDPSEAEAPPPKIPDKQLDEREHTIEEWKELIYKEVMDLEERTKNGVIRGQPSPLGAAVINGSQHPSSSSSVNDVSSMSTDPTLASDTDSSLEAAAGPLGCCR

Compound | Kd (JNK1 [1]) | Kd (JNK2 [2]; Table 3a, read-out: Kd JNK2) | Kd (JNK3 [3]; Table 3a, read-out: Kd JNK3) | IC50 (JNK1 [4]) | IC50 (JNK2 [5]) | IC50 (JNK3 [6]) | solubility (Solubility) | half-life [7] | half-life [8] | Kd (JNK2 [2]) | Kd (JNK3 [3]) | metabolism in liver microsomes ([7]; liver microsomes, in words)
Cc1ccc(NC(=O)c2ccn3ncc(-c4cnc5[nH]ccc5c4)c3c2)cc1 [CDD-2288, 3-(1H-pyrrolo[2,3-b]pyridin-5-yl)-N-(p-tolyl)pyrazolo[1,5-a]pyridine-5-carboxamide] | 0.36 ± 0.11 nM | 1.63 ± 0.14 nM | 1.41 ± 0.07 nM | 830 nM | 900 nM | 1500 nM | 1 µM (≈ 0.367 µg/mL) |  |  |  |  | 
Cc1ccc(NC(=O)c2ccn3ncc(-c4cncc5ccccc45)c3c2)cc1 [CDD-2325, 3-(isoquinolin-4-yl)-N-(p-tolyl)pyrazolo[1,5-a]pyridine-5-carboxamide] | 0.28 ± 0.12 nM | 1.27 ± 0.14 nM | 1.18 ± 0.09 nM | 1400 nM | 890 nM | 1200 nM | 2.3 µM (≈ 0.87 µg/mL) | 31 min | 7.7 min |  |  | 
CNCc1ccc(NC(=O)c2ccc3ncc(-c4cnc5[nH]ccc5c4)n3c2)cc1 [CDD-2488, N-(4-((methylamino)methyl)phenyl)-3-(1H-pyrrolo[2,3-b]pyridin-5-yl)imidazo[1,2-a]pyridine-6-carboxamide] | 3.1 ± 0.8 nM | 3.08 ± 0.16 nM | 4.34 ± 0.6 nM | 66000 nM | 13500 nM | 34800 nM | 124 µM (≈ 49.2 µg/mL) | 126 min | 119 min |  |  | 
CNC(=O)c1cc(NC(=O)c2cc3c(-c4cnc5[nH]ccc5c4)cccc3s2)ccc1OC [CDD-2490, N-(4-methoxy-3-(methylcarbamoyl)phenyl)-4-(1H-pyrrolo[2,3-b]pyridin-5-yl)benzo[b]thiophene-2-carboxamide] | 1.52 ± 0.3 nM |  |  | 6300 nM | 2000 nM | 29300 nM | 0.4 µM (≈ 0.183 µg/mL) |  |  | 5.37 ± 0.42 nM | 3.53 nM | 
CNC(=O)c1ccn2ncc(-c3cnc4[nH]ccc4c3)c2c1 [CDD-2574, N-methyl-3-(1H-pyrrolo[2,3-b]pyridin-5-yl)pyrazolo[1,5-a]pyridine-5-carboxamide] | 1.69 ± 0.39 nM | 12.5 ± 0.68 nM | 6.56 ± 0.85 nM | 7300 nM | 5400 nM | 5900 nM | 11.1 µM (≈ 3.23 µg/mL) | 7.5 min | 36.5 min |  |  | 
CNC(=O)c1cc2c(-c3cnc4[nH]ccc4c3)cccc2s1 [CDD-2627, N-methyl-4-(1H-pyrrolo[2,3-b]pyridin-5-yl)benzo[b]thiophene-2-carboxamide] | 3.74 ± 0.93 nM | 14.8 ± 0.95 nM | 9 ± 2.4 nM | 14800 nM | 6100 nM | 23000 nM | 40.3 µM (≈ 12.4 µg/mL) |  |  |  |  | 
O=C(Nc1cccc(C(=O)N2CCCCC2)c1)c1cc2c(-c3cnc4[nH]ccc4c3)cccc2s1 [CDD-2630, N-(3-(piperidine-1-carbonyl)phenyl)-4-(1H-pyrrolo[2,3-b]pyridin-5-yl)benzo[b]thiophene-2-carboxamide] | 0.68 ± 0.08 nM | 2.47 ± 0.25 nM | 1.63 ± 0.26 nM | 430 nM | 230 nM | 149 nM | 1.6 µM (≈ 0.769 µg/mL) | 3.5 min | 18.2 min |  |  | 
COc1ccc(NC(=O)c2cc3c(-c4cnc5[nH]ccc5c4)cccc3s2)cc1C(=O)N1CCOCC1 [CDD-2635, N-(4-methoxy-3-(morpholine-4-carbonyl)phenyl)-4-(1H-pyrrolo[2,3-b]pyridin-5-yl)benzo[b]thiophene-2-carboxamide] | 0.16 ± 0.05 nM | 1.54 ± 0.13 nM | 0.76 ± 0.22 nM | 186 nM | 325 nM | 160 nM | 2.6 µM (≈ 1.33 µg/mL) | 28.6 min | 74.6 min |  |  | 
COc1ccc(NC(=O)c2cc3c(-c4cnc5[nH]ccc5c4)cccc3s2)cc1C(=O)N1CCN(C)CC1 [CDD-2636, N-(4-methoxy-3-(4-methylpiperazine-1-carbonyl)phenyl)-4-(1H-pyrrolo[2,3-b]pyridin-5-yl)benzo[b]thiophene-2-carboxamide] | 0.57 ± 0.1 nM | 1.93 ± 0.14 nM | 0.54 ± 0.09 nM | 1200 nM | 820 nM | 1200 nM | 4.9 µM (≈ 2.58 µg/mL) | 16.3 min | 16 min |  |  | 
Cc1ccc(NC(=O)c2cc3c(-c4cnc5[nH]ccc5c4)cccc3s2)cc1C(=O)N(C)C [CDD-2729, N-(3-(dimethylcarbamoyl)-4-methylphenyl)-4-(1H-pyrrolo[2,3-b]pyridin-5-yl)benzo[b]thiophene-2-carboxamide] | 1.2 ± 0.16 nM | 6.5 ± 0.63 nM | 1.93 ± 0.14 nM | 1000 nM | 1000 nM | 781 nM |  | 20.1 min | 55.1 min |  |  | 
COc1ccc(NC(=O)c2cc3c(-c4cnc5[nH]cc(C)c5c4)cccc3s2)cc1C(=O)N(C)C [CDD-2731, N-(3-(dimethylcarbamoyl)-4-methoxyphenyl)-4-(3-methyl-1H-pyrrolo[2,3-b]pyridin-5-yl)benzo[b]thiophene-2-carboxamide] | 0.17 ± 0.05 nM | 1.28 ± 0.15 nM | 0.81 ± 0.05 nM | 156 nM | 156 nM | 124 nM | 3.2 µM (≈ 1.55 µg/mL) | 31.8 min | 115 min |  |  | rapidly metabolized
CN(C)C(=O)c1cc(NC(=O)c2cc3c(-c4cnc5[nH]ccc5c4)cccc3o2)ccc1O [CDD-2855, N-(3-(dimethylcarbamoyl)-4-hydroxyphenyl)-4-(1H-pyrrolo[2,3-b]pyridin-5-yl)benzofuran-2-carboxamide] | 1.52 ± 0.15 nM | 12.2 ± 1.3 nM | 2.68 ± 0.2 nM | 4910 nM | 4200 nM | 5300 nM |  | 115 min | 206 min |  |  | 
NC(=O)c1cccc(NC(=O)c2cc3c(-c4cnc5[nH]ccc5c4)cccc3s2)c1 [CDD-2936, N-(3-carbamoylphenyl)-4-(1H-pyrrolo[2,3-b]pyridin-5-yl)benzo[b]thiophene-2-carboxamide] | 1.62 ± 0.31 nM |  |  | 702 nM | 780 nM | 1140 nM |  | 68.9 min | 273 min | 9.09 ± 0.53 nM | 3.2 nM | 
CN(C)C(=O)c1cc(O)cc(NC(=O)c2cc3c(-c4cnc5[nH]ccc5c4)cccc3s2)c1 [CDD-2937, N-(3-(dimethylcarbamoyl)-5-hydroxyphenyl)-4-(1H-pyrrolo[2,3-b]pyridin-5-yl)benzo[b]thiophene-2-carboxamide] | 0.28 ± 0.05 nM | 4.53 ± 0.55 nM | 1.67 ± 0.06 nM | 1600 nM | 1460 nM | 1130 nM |  | 58 min | 193 min |  |  | 
CN(C)C(=O)c1ccc(O)c(NC(=O)c2cc3c(-c4cnc5[nH]ccc5c4)cccc3s2)c1 [CDD-2938, N-(5-(dimethylcarbamoyl)-2-hydroxyphenyl)-4-(1H-pyrrolo[2,3-b]pyridin-5-yl)benzo[b]thiophene-2-carboxamide] | 4.6 ± 1.9 nM | 1.22 ± 0.27 nM | 1.41 ± 0.3 nM | 11500 nM | 16100 nM | 15400 nM | 5.4 µM (≈ 2.47 µg/mL) | 24 min | 24.3 min |  |  | 
CN(C)C(=O)c1cc(NC(=O)c2cc3c(-c4cnc5[nH]ccc5c4)cccc3s2)ccn1 [CDD-3012, 4-(4-(1H-pyrrolo[2,3-b]pyridin-5-yl)benzo[b]thiophene-2-carboxamido)-N,N-dimethylpicolinamide] | 0.52 ± 0.12 nM | 4.84 ± 0.49 nM | 2.08 ± 0.18 nM | 3800 nM | 3600 nM | 6000 nM | 2 µM (≈ 0.883 µg/mL) | 66.7 min | 548 min |  |  | 
Cc1c[nH]c2ncc(-c3cccc4sc(C(=O)Nc5ccc(O)c(C(=O)N(C)C)c5)cc34)cc12 [CDD-3017, N-(3-(dimethylcarbamoyl)-4-hydroxyphenyl)-4-(3-methyl-1H-pyrrolo[2,3-b]pyridin-5-yl)benzo[b]thiophene-2-carboxamide] | 0.39 ± 0.12 nM | 2.23 ± 0.12 nM | 2.7 ± 0.29 nM | 254 nM | 228 nM | 235 nM |  | 131 min | 358 min |  |  | 
CN(C)C(=O)c1cc(NC(=O)c2cc3c(-c4cnc5[nH]ncc5c4)cccc3s2)ccc1O [CDD-3018, N-(3-(dimethylcarbamoyl)-4-hydroxyphenyl)-4-(1H-pyrazolo[3,4-b]pyridin-5-yl)benzo[b]thiophene-2-carboxamide] | 3.58 ± 0.47 nM | 11.4 ± 1 nM | 5.17 ± 0.33 nM |  | 10900 nM | 31700 nM | 1.5 µM (≈ 0.686 µg/mL) | 58.8 min | 531 min |  |  | 
